We go through one compound from article PMC9398908, “GLP-1-mediated delivery of tesaglitazar improves obesity and glucose metabolism in male mice” (Nature Metabolism, 2022).

What all share (type): cell-based
Experiment [1] addresses T1, PPARγ2/RXR (Homo sapiens, UniProt P37231).
T1 construct: host or cells: HEK293T, with (A8) or without (A9) co-expressed hGLP-1R
T1 sequence (P37231 1-505): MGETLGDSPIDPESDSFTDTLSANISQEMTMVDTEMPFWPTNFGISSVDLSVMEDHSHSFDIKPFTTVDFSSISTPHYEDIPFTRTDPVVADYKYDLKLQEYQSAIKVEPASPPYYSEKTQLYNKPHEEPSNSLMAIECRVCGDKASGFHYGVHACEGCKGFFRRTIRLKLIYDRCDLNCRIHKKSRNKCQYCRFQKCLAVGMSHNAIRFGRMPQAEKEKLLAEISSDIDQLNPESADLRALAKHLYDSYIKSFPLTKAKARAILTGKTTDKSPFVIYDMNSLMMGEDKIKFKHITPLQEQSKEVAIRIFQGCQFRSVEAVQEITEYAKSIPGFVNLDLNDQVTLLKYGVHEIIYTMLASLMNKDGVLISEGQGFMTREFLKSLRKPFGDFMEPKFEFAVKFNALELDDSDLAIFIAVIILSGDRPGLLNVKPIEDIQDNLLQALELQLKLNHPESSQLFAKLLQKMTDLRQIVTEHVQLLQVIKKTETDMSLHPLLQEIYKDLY
T1 sequence (P19793 1-462 partner): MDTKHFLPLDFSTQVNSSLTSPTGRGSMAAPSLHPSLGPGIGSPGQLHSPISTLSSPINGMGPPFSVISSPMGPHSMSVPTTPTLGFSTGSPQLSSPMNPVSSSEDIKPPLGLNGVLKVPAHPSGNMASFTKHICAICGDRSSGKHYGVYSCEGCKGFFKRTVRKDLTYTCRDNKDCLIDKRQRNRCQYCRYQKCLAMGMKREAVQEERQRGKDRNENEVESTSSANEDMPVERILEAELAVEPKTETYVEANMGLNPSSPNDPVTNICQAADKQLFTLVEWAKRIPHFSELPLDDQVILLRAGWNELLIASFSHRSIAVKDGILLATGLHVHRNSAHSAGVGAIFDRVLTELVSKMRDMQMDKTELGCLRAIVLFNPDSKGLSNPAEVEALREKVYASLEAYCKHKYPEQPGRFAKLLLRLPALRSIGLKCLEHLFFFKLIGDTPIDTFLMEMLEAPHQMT
Put plainly: RXR-Rluc8 / PPARγ2-YFP heterodimerization (BRET) in hGLP-1R(+) HEK293T cells. The following applies: GLP-1R (+), 1μM. As for the experimental part: (§1) HEK293T cells (700,000 per well) were seeded in six-well plates and incubated to 70% confluency in DMEM (10% FBS, 1% Pen/Strep). Twenty-four hours following seeding, transient transfections were performed using Lipofectamine 2000 (catalogue no. 11668019, Invitrogen) according to the manufacturer’s protocol without including additional transformation carrier DNA.
(§2) Twenty-four hours following transfection, HEK293T cells or MIN6 cells were washed with PBS and resuspended in FluoroBrite phenol red-free complete media (catalogue no. A1896701, Life Technologies) containing 5% FBS and 2 mM of L-glutamine (catalogue no. 25030081, Life Technologies). 100,000 cells per well were plated into poly-D-lysine-coated (catalogue no. P6403, Sigma-Aldrich) 96-well white polystyrene LumiNunc plates (catalogue no. 10072151, Thermo Fisher Scientific). After 24 h, the media was replaced with PBS (catalogue no. 10010056, Gibco) containing 10 μM of coelenterazine-h (catalogue no. S2011, Promega) or 1:500 dilution of NanoGlo (catalogue no. N1110, Promega). BRET measurements were taken every 30 s–2 min using a PHERAstar FS multi-mode microplate reader. Baseline measurements were taken after an initial 5 min of incubation with coelenterazine-h or NanoGlo-containing PBS after which cells were then treated with either vehicle (PBS) or respective ligands. The resulting ligand-specific ratiometric BRET signals were normalized to vehicle producing the ‘ligand-induced BRET ratio’[37], followed by an additional normalization step to well-specific baseline readings. Ligand-induced measurements on the temporal scale is represented as the subsequent measurement after time point zero. Positive or negative incremental AUC (+iAUC/−iAUC) were calculated where noted. Each experiment was independently performed at least three times, each with at least three technical replicates for each group.
Untagged hGLP-1R was purchased from Sino Biological Inc. (catalogue no. HG13944-UT), hGLP-1R-GFP was a kind gift from D. Hodson (University of Birmingham), and hGLP-1R-Rluc8 was a kind gift from P. Sexton (Monash University, Melbourne, Australia). Gαs recruitment to the GLP-1R-GFP was quantified using mini-Gαs, a protein probe that translocates to ligand-bound Gαs-coupled G-protein coupled receptors. NES-Nluc-MiniGαs was a gift from K. Pfleger (Harry Perkins Institute of Medical Research, Nedlands, Western Australia, Australia). Intracellular cAMP was measured using the YFP-Epac-Rluc CAMYEL sensor[39]. hGLP-1R-RLUC8 internalization was quantified using the intracellular plasma membrane marker Venus-KRAS[40]. Venus-KRAS was a kind gift from K. Pfleger. GLP-1R-Rluc8 lysosomal colocalization was measured using Lamp1-mNeonGreen. Lamp1-mNeonGreen was a gift from D. Gadella (Addgene plasmid no. 98882). Time-dependent RXR/PPARγ heterodimerization was measured using RXR-Rluc8 and PPARγ2-YFP, both of which were kind gifts from V. Ollendorf[41].
A general note: BRET reads energy transfer from a luciferase to a nearby fluorophore.

For experiment [2], the target named is T2, hGLP-1R (Homo sapiens, UniProt P43220).
T2 construct: host or cells: HEK293T, transient transfection
Put plainly: Ligand-induced cAMP production (CAMYEL BRET sensor) in hGLP-1R+ HEK293T cells. The following applies: HEK293 cells transfected with human GLP-1R; dose response, Fig. 1b; in words. The procedure: as §1
as §2, with “Baseline measurements were taken after an initial 5 min of incubation with coelenterazine-h or NanoGlo-containing PBS after which cells were then treated with either vehicle (PBS) or respective ligands.” left out, “readings.” for “readings. Ligand-induced measurements on the temporal scale is represented as the subsequent measurement after time point zero. Positive or negative incremental AUC (+iAUC/−iAUC) were calculated where noted. Each experiment was independently performed at least three times, each with at least three technical replicates for each group.”
(In general: cAMP levels reflect the balance of adenylyl cyclase and phosphodiesterase activity.)

The target of experiment [3] is T2, hGLP-1R. The experiment can be described thus: hGLP-1R-Rluc8 co-localization with lysosome marker Lamp1-mNeonGreen (BRET) in HEK293T cells. The following applies: HEK293 cells; Fig. 1g; in words. The procedure:
as §1
as §2, with “Baseline measurements were taken after an initial 5 min of incubation with coelenterazine-h or NanoGlo-containing PBS after which cells were then treated with either vehicle (PBS) or respective ligands.” left out, “readings.” for “readings. Ligand-induced measurements on the temporal scale is represented as the subsequent measurement after time point zero. Positive or negative incremental AUC (+iAUC/−iAUC) were calculated where noted. Each experiment was independently performed at least three times, each with at least three technical replicates for each group.”

T2 sequence (P43220 24-463): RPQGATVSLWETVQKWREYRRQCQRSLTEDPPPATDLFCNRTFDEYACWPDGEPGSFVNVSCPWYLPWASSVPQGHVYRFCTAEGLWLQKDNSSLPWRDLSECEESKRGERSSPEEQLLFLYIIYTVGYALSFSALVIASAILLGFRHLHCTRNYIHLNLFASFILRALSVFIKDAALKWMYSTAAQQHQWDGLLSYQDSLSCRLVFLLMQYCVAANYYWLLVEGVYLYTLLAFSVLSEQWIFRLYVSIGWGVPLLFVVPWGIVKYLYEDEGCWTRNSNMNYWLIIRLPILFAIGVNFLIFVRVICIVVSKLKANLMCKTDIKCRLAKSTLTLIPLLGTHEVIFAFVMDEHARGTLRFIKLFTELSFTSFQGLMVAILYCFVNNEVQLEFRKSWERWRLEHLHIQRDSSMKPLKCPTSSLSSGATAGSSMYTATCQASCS

Take `CCO[C@@H](Cc1ccc(OCCc2ccc(OS(C)(=O)=O)cc2)cc1)C(=O)O` [tesaglitazar, (S)-2-ethoxy-3-(4-(4-((methylsulfonyl)oxy)phenethoxy)phenyl) propanoic acid]: the “RXR/PPARγ Heterodimerization (AUC), +iAUC” value was found to be 81.74 in experiment [1] (replicate 1); 115.10 in experiment [1] (replicate 2); 84.31 in experiment [1] (replicate 3); 42.82 in experiment [1] (replicate 4); 35.86 in experiment [1] (replicate 5); 49.17 in experiment [1] (replicate 6). Moreover, the “RXR/PPARγ Heterodimerization (AUC), +iAUC” value is reported as 59.85 in experiment [1] (replicate 7) and 106.60 in experiment [1] (replicate 8). In experiment [2], the cAMP production result was “had no effect”. For the same compound, in experiment [3], the “lysosomal GLP-1R appearance (GLP-1R-Lamp1 colocalization)” value is on record as “had no effect”.
